This note sets out measurements from the supplement of paper PMC10307832.

Test in all cases: relative viability (nuclei count vs DMSO), 5 days (fraction); higher = more cells survive
Compound in the test “Pictilisib + Trametinib”: CS(=O)(=O)N1CCN(Cc2cc3nc(-c4cccc5[nH]ncc45)nc(N4CCOCC4)c3s2)CC1 [Pictilisib] + CC(=O)Nc1cccc(-n2c(=O)n(C3CC3)c(=O)c3c(Nc4ccc(I)cc4F)n(C)c(=O)c(C)c32)c1 [Trametinib] (partner 0.02 µM)
Summed up:
(§1)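 Lung cancer cell lines were seeded in 1536-well plates and dosed by pin tool the next day, with either a single drug or a fixed anchor-drug dose combined with five library-drug doses (not always all listed) spaced in √10 steps. Five days later, one step fixed the cells and stained their nuclei (final 0.05% Triton X-100, 1% formaldehyde, 1 ug/ml Hoechst), and nuclei were counted on 4× images. Relative viability is the nuclei count in treated wells divided by the count in vehicle wells, and each value is the median of duplicate plates.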

Compound in the test “Pictilisib + Pemetrexed”: CS(=O)(=O)N1CCN(Cc2cc3nc(-c4cccc5[nH]ncc45)nc(N4CCOCC4)c3s2)CC1 [Pictilisib] + Nc1nc2[nH]cc(CCc3ccc(C(=O)N[C@@H](CCC(=O)O)C(=O)O)cc3)c2c(=O)[nH]1 [Pemetrexed] (partner 0.2 µM)
Summed up: as §1

Compound in the test “MK-2206 + Bortezomib”: NC1(c2ccc(-c3nc4ccn5c(=O)[nH]nc5c4cc3-c3ccccc3)cc2)CCC1 [MK-2206] + CC(C)C[C@H](NC(=O)[C@H](Cc1ccccc1)NC(=O)c1cnccn1)B(O)O [Bortezomib] (partner 0.002 µM)
An outline of the steps:
as §1

Compound in the test “MK-2206 + Lapatinib”: NC1(c2ccc(-c3nc4ccn5c(=O)[nH]nc5c4cc3-c3ccccc3)cc2)CCC1 [MK-2206] + CS(=O)(=O)CCNCc1ccc(-c2ccc3ncnc(Nc4ccc(OCc5cccc(F)c5)c(Cl)c4)c3c2)o1 [Lapatinib] (partner 2 µM)
An outline of the steps:
as §1

Compound in the test “MK-2206 + Linsitinib”: NC1(c2ccc(-c3nc4ccn5c(=O)[nH]nc5c4cc3-c3ccccc3)cc2)CCC1 [MK-2206] + C[C@]1(O)C[C@@H](c2nc(-c3ccc4ccc(-c5ccccc5)nc4c3)c3c(N)nccn32)C1 [Linsitinib] (partner 1 µM)
An outline of the steps:
as §1

On to NCI-H322M, for which the relative viability was 0.516 with Pictilisib + Trametinib (first compound 0.02 µM); 0.529 in the test with Pictilisib + Trametinib (first compound 0.06325 µM); 0.407 with Pictilisib + Trametinib (first compound 0.6325 µM); 0.394 with Pictilisib + Trametinib (first compound 2 µM); 0.541 in the test with Pictilisib + Pemetrexed (first compound 0.02 µM); 0.616 with Pictilisib + Pemetrexed (first compound 0.06325 µM). For the same cell line, the relative viability with Pictilisib + Pemetrexed (first compound 0.6325 µM) worked out at 0.584; with Pictilisib + Pemetrexed (first compound 2 µM), 0.239; with MK-2206 + Bortezomib (first compound 0.01 µM) it was 1.12; with MK-2206 + Bortezomib (first compound 0.03162 µM) it was 1.35; with MK-2206 + Bortezomib (first compound 0.3162 µM), 1.31; in the test with MK-2206 + Bortezomib (first compound 1 µM) it was 1.41. Besides, the relative viability with MK-2206 + Lapatinib (first compound 0.01 µM) is 0.599; in the test with MK-2206 + Lapatinib (first compound 0.03162 µM), 0.634; with MK-2206 + Lapatinib (first compound 0.3162 µM), 0.604; with MK-2206 + Lapatinib (first compound 1 µM), 0.68; in the test with MK-2206 + Linsitinib (first compound 0.01 µM), 0.912; in the test with MK-2206 + Linsitinib (first compound 0.03162 µM), 0.949. Moreover, the relative viability with MK-2206 + Linsitinib (first compound 0.3162 µM) turned out to be 0.869; with MK-2206 + Linsitinib (first compound 1 µM), 0.942.
As to NCI-H2405, the relative viability with Pictilisib + Trametinib (first compound 0.02 µM) is 0.719; with Pictilisib + Trametinib (first compound 0.06325 µM), 0.515; with Pictilisib + Trametinib (first compound 0.6325 µM), 0.355; in the test with Pictilisib + Trametinib (first compound 2 µM) it was 0.254; in the test with Pictilisib + Pemetrexed (first compound 0.02 µM), 1.3; in the test with Pictilisib + Pemetrexed (first compound 0.06325 µM), 1.01. Moreover, the relative viability with Pictilisib + Pemetrexed (first compound 0.6325 µM) was 0.778; with Pictilisib + Pemetrexed (first compound 2 µM) it was 0.416; in the test with MK-2206 + Bortezomib (first compound 0.01 µM), 0.96; with MK-2206 + Bortezomib (first compound 0.03162 µM), 1.1; with MK-2206 + Bortezomib (first compound 0.3162 µM) it was 0.958; with MK-2206 + Bortezomib (first compound 1 µM), 0.987. Further, the relative viability with MK-2206 + Lapatinib (first compound 0.01 µM) came to 1.07; with MK-2206 + Lapatinib (first compound 0.03162 µM), 1.19; in the test with MK-2206 + Lapatinib (first compound 0.3162 µM) it was 0.809; with MK-2206 + Lapatinib (first compound 1 µM), 0.859; in the test with MK-2206 + Linsitinib (first compound 0.01 µM), 0.878; with MK-2206 + Linsitinib (first compound 0.03162 µM), 1.09. Besides, the results for the relative viability in the test with MK-2206 + Linsitinib (first compound 0.3162 µM) and with MK-2206 + Linsitinib (first compound 1 µM) were 0.878 and 0.71, respectively.
In the case of NCI-H1666, the relative viability in the test with Pictilisib + Trametinib (first compound 0.02 µM) stood at 0.802; with Pictilisib + Trametinib (first compound 0.06325 µM), 0.892; with Pictilisib + Trametinib (first compound 0.6325 µM), 0.622; in the test with Pictilisib + Trametinib (first compound 2 µM), 0.575; with Pictilisib + Pemetrexed (first compound 0.02 µM) it was 0.947; with Pictilisib + Pemetrexed (first compound 0.06325 µM), 0.846. Moreover, the relative viability with Pictilisib + Pemetrexed (first compound 0.6325 µM) came out at 0.737; in the test with Pictilisib + Pemetrexed (first compound 2 µM) it was 0.725; with MK-2206 + Bortezomib (first compound 0.01 µM) it was 0.832; with MK-2206 + Bortezomib (first compound 0.03162 µM), 0.801; in the test with MK-2206 + Bortezomib (first compound 0.3162 µM) it was 0.613; with MK-2206 + Bortezomib (first compound 1 µM), 0.5. In addition, the relative viability with MK-2206 + Lapatinib (first compound 0.01 µM) turned out to be 0.633; with MK-2206 + Lapatinib (first compound 0.03162 µM) it was 0.577; in the test with MK-2206 + Lapatinib (first compound 0.3162 µM), 0.354; with MK-2206 + Lapatinib (first compound 1 µM) it was 0.386; with MK-2206 + Linsitinib (first compound 0.01 µM) it was 0.753; in the test with MK-2206 + Linsitinib (first compound 0.03162 µM), 0.73. Moreover, the relative viability in the test with MK-2206 + Linsitinib (first compound 0.3162 µM) was determined as 0.695; in the test with MK-2206 + Linsitinib (first compound 1 µM), 0.709.
H3255: the relative viability with Pictilisib + Trametinib (first compound 0.02 µM) came out at 0.611; in the test with Pictilisib + Trametinib (first compound 0.06325 µM), 0.556; with Pictilisib + Trametinib (first compound 0.6325 µM), 0.394; with Pictilisib + Trametinib (first compound 2 µM), 0.243; in the test with Pictilisib + Pemetrexed (first compound 0.02 µM) it was 0.611; in the test with Pictilisib + Pemetrexed (first compound 0.06325 µM), 0.613. For the same cell line, the relative viability was found to be 0.525 with Pictilisib + Pemetrexed (first compound 0.6325 µM); 0.399 with Pictilisib + Pemetrexed (first compound 2 µM); 0.718 in the test with MK-2206 + Bortezomib (first compound 0.01 µM); 0.977 with MK-2206 + Bortezomib (first compound 0.03162 µM); 0.718 with MK-2206 + Bortezomib (first compound 0.3162 µM); 0.564 in the test with MK-2206 + Bortezomib (first compound 1 µM). Also, the relative viability with MK-2206 + Lapatinib (first compound 0.01 µM) came to 0.268; in the test with MK-2206 + Lapatinib (first compound 0.03162 µM), 0.224; in the test with MK-2206 + Lapatinib (first compound 0.3162 µM), 0.18; with MK-2206 + Lapatinib (first compound 1 µM), 0.192; with MK-2206 + Linsitinib (first compound 0.01 µM), 0.975; with MK-2206 + Linsitinib (first compound 0.03162 µM), 0.924. The relative viability worked out at 0.847 in the test with MK-2206 + Linsitinib (first compound 0.3162 µM) and 0.726 with MK-2206 + Linsitinib (first compound 1 µM).
